PMC11397024, “Strategic Fluorination to Achieve a Potent, Selective, Metabolically Stable, and Orally Bioavailable Inhibitor of CSNK2” (Molecules, 2024)

How the values were obtained:
Assay in all cases: NanoBRET K192
Type in all cases: cell-based
Details in all cases: HEK293
MARK4 = target: T1, MARK4 (Homo sapiens, UniProt Q96L34)
T1 construct: purchased Promega (NanoBRET Target Engagement K192 Kinase Selectivity System)
Procedure: (§1) The K192 selectivity assay was run according to the Draft Promega technical manual, NanoBRET^TM Target Engagement K192 Kinase Selectivity System. Reagents were supplied by Promega (Promega NP 4101). For the assay, DNA from the prepared kinase vector panel plates A and B were mixed with Fugene in 96-well plates (Corning 3917) and incubated at room temperature for 30 min. The NanoLuc® Low control vector pNL1.1.CMV [Nluc/CMV] Vector (Cat.# N1091) and the transfection control vector NanoLuc®-HIPK2 Fusion Vector (Cat.# NV3221) were used as controls.
(§2) HEK293 cells were grown to 75–95% confluency in DMEM (Gibco 11995-065) supplemented with FBS (Avantor 97068-085) at 37 °C in […]. On the first day of the assay, cells were harvested and resuspended in Opti-MEM (Gibco 11058-021) supplemented with 1% FBS (Avantor 97068-085) at 2.5 × 10^5 cells per mL. A volume of 60 μL of cell suspension was mixed with 10 μL of prepared DNA (10X concentration) and 30 μL of Fugene (30 μL/mL in Opti-MEM) as outlined by Promega and incubated overnight at 37 °C in a 5% CO2 incubator.
(§3) On day two of the assay, 5 μL of 20X K10 tracer was prepared and added at concentrations recommended by Promega. Then, 10 μL of test compounds at 100 μM in Opti-MEM (diluted from a 10 mM solution in DMSO) was added to the test wells while an equivalent volume of Opti-MEM was added to the high-control wells. Plates were kept at 37 °C in a 5% CO2 incubator for two hours. After two hours, plates were allowed to equilibrate to room temperature for 15 min. A solution of 3X Complete Substrate plus Inhibitor Solution was freshly prepared, consisting of a 1:166 dilution of NanoBRET™ Nano-Glo® Substrate plus a 1:500 dilution of Extracellular NanoLuc® Inhibitor in Opti-MEM® medium without serum or phenol red. A 50 μL volume of the 3X Complete Substrate plus Inhibitor Solution was added to each assay well, including control wells. After 2–3 min, the plate was shaken at 300 RPM for 10 s, and the donor emission wavelength (450 nm) and acceptor emission wavelength (610 nm) were measured using the Glomax® Discover System.
(§4) As a quality check, the donor signal-to-background ratio was calculated for each individual kinase by dividing the mean donor signal for each kinase by the mean donor signal for the signal-to-background control wells. Fractional occupancy of the test drug for each kinase was determined using the following formula:Occupancy (%) = [1 − (Sample − Bottom)/(Top − Bottom)] × 100 where

NEK11 = target: T2, NEK11 (Homo sapiens, UniProt Q8NG66)
T2 construct: purchased Promega (NanoBRET Target Engagement K192 Kinase Selectivity System)
Procedure: as §1, §2, §3, §4

CDK7 + pMB = target: T3, CDK7 + pMB (Homo sapiens, UniProt P50613)
T3 construct: purchased Promega (NanoBRET Target Engagement K192 Kinase Selectivity System)
Procedure: as §1, §2, §3, §4

MAPK9 = target: T4, MAPK9 (Homo sapiens, UniProt P45984)
T4 construct: purchased Promega (NanoBRET Target Engagement K192 Kinase Selectivity System)
T4 sequence (P45984 whole entry): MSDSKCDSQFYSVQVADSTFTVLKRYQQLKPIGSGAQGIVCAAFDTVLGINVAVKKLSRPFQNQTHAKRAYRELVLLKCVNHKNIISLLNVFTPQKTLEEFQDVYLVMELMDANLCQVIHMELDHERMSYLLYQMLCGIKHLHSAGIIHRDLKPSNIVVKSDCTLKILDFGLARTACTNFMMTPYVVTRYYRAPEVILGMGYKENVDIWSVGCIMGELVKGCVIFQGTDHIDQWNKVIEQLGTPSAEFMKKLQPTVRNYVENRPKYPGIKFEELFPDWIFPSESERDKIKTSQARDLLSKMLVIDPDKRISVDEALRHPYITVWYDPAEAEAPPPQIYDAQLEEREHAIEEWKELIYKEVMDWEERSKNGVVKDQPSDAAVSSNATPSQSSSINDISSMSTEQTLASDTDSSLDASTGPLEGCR
Procedure: as §1, §2, §3, §4

LCK = target: T5, LCK (Homo sapiens, UniProt P06239)
T5 construct: purchased Promega (NanoBRET Target Engagement K192 Kinase Selectivity System)
T5 sequence (P06239 whole entry): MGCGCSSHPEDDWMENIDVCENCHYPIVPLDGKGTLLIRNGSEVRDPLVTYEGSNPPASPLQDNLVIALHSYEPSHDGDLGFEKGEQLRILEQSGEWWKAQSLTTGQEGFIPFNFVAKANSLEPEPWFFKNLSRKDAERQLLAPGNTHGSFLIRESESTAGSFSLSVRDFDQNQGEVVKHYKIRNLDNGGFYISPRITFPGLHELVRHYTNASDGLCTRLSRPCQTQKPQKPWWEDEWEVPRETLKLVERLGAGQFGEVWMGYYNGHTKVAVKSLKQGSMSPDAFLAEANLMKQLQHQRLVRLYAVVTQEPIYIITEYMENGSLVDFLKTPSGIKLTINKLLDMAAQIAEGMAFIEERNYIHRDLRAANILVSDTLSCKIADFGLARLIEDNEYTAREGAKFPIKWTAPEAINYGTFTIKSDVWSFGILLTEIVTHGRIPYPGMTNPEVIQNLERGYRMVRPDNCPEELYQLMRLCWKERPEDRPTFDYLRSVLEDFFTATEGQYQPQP
Procedure: as §1, §2, §3, §4

FLT3 = target: T6, FLT3 (Homo sapiens, UniProt P36888)
T6 construct: host or cells: HEK293
T6 sequence (P36888 27-993): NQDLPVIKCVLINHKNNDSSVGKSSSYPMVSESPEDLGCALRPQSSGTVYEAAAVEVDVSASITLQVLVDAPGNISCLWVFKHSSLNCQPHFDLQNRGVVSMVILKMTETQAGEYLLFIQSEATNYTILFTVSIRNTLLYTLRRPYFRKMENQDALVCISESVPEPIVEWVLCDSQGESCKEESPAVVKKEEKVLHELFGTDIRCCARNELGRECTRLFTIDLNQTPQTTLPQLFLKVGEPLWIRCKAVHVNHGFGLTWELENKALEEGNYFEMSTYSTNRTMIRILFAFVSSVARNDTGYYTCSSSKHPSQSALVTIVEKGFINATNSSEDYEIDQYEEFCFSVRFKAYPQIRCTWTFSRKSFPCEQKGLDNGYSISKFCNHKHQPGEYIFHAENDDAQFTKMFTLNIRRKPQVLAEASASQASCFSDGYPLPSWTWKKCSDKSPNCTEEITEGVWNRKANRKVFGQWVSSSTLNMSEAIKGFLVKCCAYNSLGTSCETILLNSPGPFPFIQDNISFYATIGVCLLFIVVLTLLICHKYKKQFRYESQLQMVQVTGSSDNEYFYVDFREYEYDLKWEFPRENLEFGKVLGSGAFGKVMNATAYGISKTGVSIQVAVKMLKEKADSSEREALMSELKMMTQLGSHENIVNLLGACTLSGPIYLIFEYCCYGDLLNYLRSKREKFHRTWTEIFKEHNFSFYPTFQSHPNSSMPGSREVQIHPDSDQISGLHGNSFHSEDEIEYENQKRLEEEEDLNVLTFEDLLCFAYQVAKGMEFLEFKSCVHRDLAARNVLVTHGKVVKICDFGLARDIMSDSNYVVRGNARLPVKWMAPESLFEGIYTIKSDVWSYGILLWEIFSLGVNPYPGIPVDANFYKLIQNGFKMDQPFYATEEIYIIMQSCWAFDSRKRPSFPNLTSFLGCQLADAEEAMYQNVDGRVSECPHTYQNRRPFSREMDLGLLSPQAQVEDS
Procedure: as §1, §2, §3, §4

TBK1 = target: T7, TBK1 (Homo sapiens, UniProt Q9UHD2)
T7 construct: purchased Promega (NanoBRET Target Engagement K192 Kinase Selectivity System)
Procedure: as §1, §2, §3, §4

STK4 = target: T8, STK4 (Homo sapiens, UniProt Q13043)
T8 construct: purchased Promega (NanoBRET Target Engagement K192 Kinase Selectivity System)
Procedure: as §1, §2, §3, §4

LTK = target: T9, LTK (Homo sapiens, UniProt P29376)
T9 construct: purchased Promega (NanoBRET Target Engagement K192 Kinase Selectivity System)
Procedure: as §1, §2, §3, §4

CHEK2 = target: T10, CHEK2 (Homo sapiens, UniProt O96017)
T10 construct: purchased Promega (NanoBRET Target Engagement K192 Kinase Selectivity System)
Procedure: as §1, §2, §3, §4

RPS6KA4 = target: T11, RPS6KA4 (Homo sapiens, UniProt O75676)
T11 construct: purchased Promega (NanoBRET Target Engagement K192 Kinase Selectivity System)
Procedure: as §1, §2, §3, §4

FGFR3 = target: T12, FGFR3 (Homo sapiens, UniProt P22607)
T12 construct: purchased Promega (NanoBRET Target Engagement K192 Kinase Selectivity System)
Procedure: as §1, §2, §3, §4

TNK2 = target: T13, TNK2 (Homo sapiens, UniProt Q07912)
T13 construct: purchased Promega (NanoBRET Target Engagement K192 Kinase Selectivity System)
Procedure: as §1, §2, §3, §4

JNK3 = target: T14, JNK3 (Homo sapiens, UniProt P53779)
T14 construct: purchased Promega (NanoBRET Target Engagement K192 Kinase Selectivity System)
T14 sequence (P53779 whole entry): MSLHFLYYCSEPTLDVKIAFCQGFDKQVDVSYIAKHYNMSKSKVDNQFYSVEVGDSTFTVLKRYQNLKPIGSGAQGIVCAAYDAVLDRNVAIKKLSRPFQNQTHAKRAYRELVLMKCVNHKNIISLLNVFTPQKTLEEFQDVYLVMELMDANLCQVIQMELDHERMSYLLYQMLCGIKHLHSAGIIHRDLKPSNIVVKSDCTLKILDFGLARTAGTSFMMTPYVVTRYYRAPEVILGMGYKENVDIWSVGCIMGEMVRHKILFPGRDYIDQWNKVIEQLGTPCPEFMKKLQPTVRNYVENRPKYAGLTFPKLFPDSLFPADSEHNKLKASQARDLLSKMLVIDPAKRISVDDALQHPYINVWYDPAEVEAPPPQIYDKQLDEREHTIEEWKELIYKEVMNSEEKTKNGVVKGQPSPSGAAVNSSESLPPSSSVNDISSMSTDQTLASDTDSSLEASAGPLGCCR
Procedure: as §1, §2, §3, §4

CDK14 + Y = target: T15, CDK14 + Y (Homo sapiens, UniProt O94921)
T15 construct: purchased Promega (NanoBRET Target Engagement K192 Kinase Selectivity System)
T15 sequence (O94921 whole entry): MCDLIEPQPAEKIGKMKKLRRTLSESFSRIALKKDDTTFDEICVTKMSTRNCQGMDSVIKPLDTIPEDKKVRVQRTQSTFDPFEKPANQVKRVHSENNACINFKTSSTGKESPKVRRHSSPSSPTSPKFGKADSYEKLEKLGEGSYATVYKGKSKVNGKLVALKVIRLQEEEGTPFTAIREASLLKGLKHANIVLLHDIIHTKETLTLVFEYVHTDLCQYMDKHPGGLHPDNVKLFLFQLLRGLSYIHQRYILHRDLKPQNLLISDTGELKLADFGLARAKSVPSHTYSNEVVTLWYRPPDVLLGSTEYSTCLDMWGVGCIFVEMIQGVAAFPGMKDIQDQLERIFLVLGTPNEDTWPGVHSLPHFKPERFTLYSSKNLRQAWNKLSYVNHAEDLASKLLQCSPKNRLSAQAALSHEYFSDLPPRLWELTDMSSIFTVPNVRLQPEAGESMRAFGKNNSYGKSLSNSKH
T15 sequence (Q8ND76 whole entry partner): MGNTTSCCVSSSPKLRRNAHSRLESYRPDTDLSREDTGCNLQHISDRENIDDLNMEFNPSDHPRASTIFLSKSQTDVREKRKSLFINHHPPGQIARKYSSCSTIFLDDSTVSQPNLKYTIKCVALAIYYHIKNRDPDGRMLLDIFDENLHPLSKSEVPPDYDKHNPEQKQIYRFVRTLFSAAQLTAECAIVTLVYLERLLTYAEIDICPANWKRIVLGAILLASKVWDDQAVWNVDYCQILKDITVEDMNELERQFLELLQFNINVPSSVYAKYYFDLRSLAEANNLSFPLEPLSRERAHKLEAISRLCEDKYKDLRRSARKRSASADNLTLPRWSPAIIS
Procedure: as §1, §2, §3, §4

CDK6 + D1 = target: T16, CDK6 + D1 (Homo sapiens, UniProt Q00534)
T16 construct: purchased Promega (NanoBRET Target Engagement K192 Kinase Selectivity System)
T16 sequence (Q00534 whole entry): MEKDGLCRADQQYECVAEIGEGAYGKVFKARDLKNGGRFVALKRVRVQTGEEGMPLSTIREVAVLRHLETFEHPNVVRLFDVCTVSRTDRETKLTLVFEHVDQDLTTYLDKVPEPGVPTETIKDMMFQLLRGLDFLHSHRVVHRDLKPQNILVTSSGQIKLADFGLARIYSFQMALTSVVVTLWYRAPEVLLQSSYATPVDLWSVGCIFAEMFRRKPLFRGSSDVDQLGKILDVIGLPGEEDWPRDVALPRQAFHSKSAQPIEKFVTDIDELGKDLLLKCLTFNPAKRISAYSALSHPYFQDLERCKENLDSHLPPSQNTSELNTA
T16 sequence (P24385 whole entry partner): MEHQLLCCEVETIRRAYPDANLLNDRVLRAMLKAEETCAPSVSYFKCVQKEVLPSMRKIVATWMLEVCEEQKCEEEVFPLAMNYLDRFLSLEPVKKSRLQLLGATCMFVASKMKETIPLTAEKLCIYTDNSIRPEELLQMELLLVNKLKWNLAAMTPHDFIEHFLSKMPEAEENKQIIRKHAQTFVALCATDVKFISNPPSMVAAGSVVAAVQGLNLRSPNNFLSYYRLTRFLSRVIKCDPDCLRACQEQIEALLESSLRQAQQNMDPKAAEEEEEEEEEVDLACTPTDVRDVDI
Procedure: as §1, §2, §3, §4

MAPK14 = target: T17, MAPK14 (Homo sapiens, UniProt Q16539)
T17 construct: purchased Promega (NanoBRET Target Engagement K192 Kinase Selectivity System)
Procedure: as §1, §2, §3, §4

CDK15 + Y = target: T18, CDK15 + Y (Homo sapiens, UniProt Q96Q40)
T18 construct: purchased Promega (NanoBRET Target Engagement K192 Kinase Selectivity System)
Procedure: as §1, §2, §3, §4

RPS6KA1 = target: T19, RPS6KA1 (Homo sapiens, UniProt Q15418)
T19 construct: purchased Promega (NanoBRET Target Engagement K192 Kinase Selectivity System)
Procedure: as §1, §2, §3, §4

NTRK2 = target: T20, NTRK2 (Homo sapiens, UniProt Q16620)
T20 construct: purchased Promega (NanoBRET Target Engagement K192 Kinase Selectivity System)
Procedure: as §1, §2, §3, §4

STK32B = target: T21, STK32B (Homo sapiens, UniProt Q9NY57)
T21 construct: purchased Promega (NanoBRET Target Engagement K192 Kinase Selectivity System)
Procedure: as §1, §2, §3, §4

EPHA7 = target: T22, EPHA7 (Homo sapiens, UniProt Q15375)
T22 construct: host or cells: HEK293
Procedure: as §1, §2, §3, §4

STK17B = target: T23, STK17B (Homo sapiens, UniProt O94768)
T23 construct: purchased Promega (NanoBRET Target Engagement K192 Kinase Selectivity System)
Procedure: as §1, §2, §3, §4

AURK A = target: T24, AURK A (Homo sapiens, UniProt O14965)
T24 construct: host or cells: HEK293
Procedure: as §1, §2, §3, §4

CAMK1 = target: T25, CAMK1 (Homo sapiens, UniProt Q14012)
T25 construct: purchased Promega (NanoBRET Target Engagement K192 Kinase Selectivity System)
Procedure: as §1, §2, §3, §4

LATS2 = target: T26, LATS2 (Homo sapiens, UniProt Q9NRM7)
T26 construct: purchased Promega (NanoBRET Target Engagement K192 Kinase Selectivity System)
Procedure: as §1, §2, §3, §4

WEE1 = target: T27, WEE1 (Homo sapiens, UniProt P30291)
T27 construct: purchased Promega (NanoBRET Target Engagement K192 Kinase Selectivity System)
Procedure: as §1, §2, §3, §4

ULK1 = target: T28, ULK1 (Homo sapiens, UniProt O75385)
T28 construct: purchased Promega (NanoBRET Target Engagement K192 Kinase Selectivity System)
T28 sequence (O75385 whole entry): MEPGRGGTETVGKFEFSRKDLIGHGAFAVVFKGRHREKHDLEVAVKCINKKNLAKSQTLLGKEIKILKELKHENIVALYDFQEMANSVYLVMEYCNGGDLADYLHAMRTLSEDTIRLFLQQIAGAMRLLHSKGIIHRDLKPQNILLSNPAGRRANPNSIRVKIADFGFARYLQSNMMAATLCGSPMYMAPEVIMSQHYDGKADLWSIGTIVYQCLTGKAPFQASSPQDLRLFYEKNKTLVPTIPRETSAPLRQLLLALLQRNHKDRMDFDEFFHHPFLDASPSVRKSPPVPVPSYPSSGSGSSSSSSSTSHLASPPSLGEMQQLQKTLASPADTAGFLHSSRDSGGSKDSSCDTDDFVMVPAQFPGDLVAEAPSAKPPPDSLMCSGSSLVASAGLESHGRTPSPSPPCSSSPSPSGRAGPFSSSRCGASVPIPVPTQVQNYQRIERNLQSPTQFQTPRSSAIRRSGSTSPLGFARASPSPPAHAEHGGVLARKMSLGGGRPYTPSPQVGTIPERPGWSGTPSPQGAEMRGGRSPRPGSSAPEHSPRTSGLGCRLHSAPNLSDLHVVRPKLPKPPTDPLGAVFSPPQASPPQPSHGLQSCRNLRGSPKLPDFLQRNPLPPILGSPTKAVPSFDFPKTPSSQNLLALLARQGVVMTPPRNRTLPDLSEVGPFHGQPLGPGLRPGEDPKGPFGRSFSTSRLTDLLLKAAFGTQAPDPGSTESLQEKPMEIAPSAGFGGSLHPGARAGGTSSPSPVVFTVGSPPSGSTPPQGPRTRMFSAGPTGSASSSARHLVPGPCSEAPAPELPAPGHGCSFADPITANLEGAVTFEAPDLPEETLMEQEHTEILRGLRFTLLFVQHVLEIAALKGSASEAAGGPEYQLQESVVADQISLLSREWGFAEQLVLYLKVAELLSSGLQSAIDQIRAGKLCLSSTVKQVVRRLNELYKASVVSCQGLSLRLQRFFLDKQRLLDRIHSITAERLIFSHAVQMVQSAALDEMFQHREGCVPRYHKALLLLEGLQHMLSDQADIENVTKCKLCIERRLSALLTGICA
Procedure: as §1, §2, §3, §4

With `CCC(=O)Nc1cc(Nc2cc(NC3CC3)n3ncc(C#N)c3n2)c(F)cc1N1CCC[C@H](NC)C1` [Compound 2, (S)-N-(5-((3-cyano-7-(cyclopropylamino)pyrazolo[1,5-a]pyrimidin-5-yl)amino)-4-fluoro-2-(3-(methylamino)piperidin-1-yl)phenyl)propionamide] the receptor occupancy at 10 µM (MARK4) was 7.4%, the receptor occupancy at 10 µM (NEK11) was 19.1% and the receptor occupancy at 10 µM (CDK7 + pMB) was 43.9%. It also gave a receptor occupancy at 10 µM (MAPK9) of 2.4%, a receptor occupancy at 10 µM (LCK) of 4.9% and a receptor occupancy at 10 µM (FLT3) of -13.5%. It also gave a receptor occupancy at 10 µM (TBK1) of 18.5%, a receptor occupancy at 10 µM (STK4) of 6.9% and a receptor occupancy at 10 µM (LTK) of 4.2%. It also gave a receptor occupancy at 10 µM (CHEK2) of -0.8%, a receptor occupancy at 10 µM (RPS6KA4) of 6.4% and a receptor occupancy at 10 µM (FGFR3) of -0.7%. The receptor occupancy at 10 µM (TNK2) was 12.5%, the receptor occupancy at 10 µM (JNK3) was 1% and the receptor occupancy at 10 µM (CDK14 + Y) was 29.4%. For the same molecule, the receptor occupancy at 10 µM (CDK6 + D1) was 11.9%, the receptor occupancy at 10 µM (MAPK14) was 10.4% and the receptor occupancy at 10 µM (CDK15 + Y) was 26.5%. It also gave a receptor occupancy at 10 µM (RPS6KA1) of 7.1%, a receptor occupancy at 10 µM (NTRK2) of -0.1% and a receptor occupancy at 10 µM (STK32B) of 5.9%. For the same molecule, the receptor occupancy at 10 µM (EPHA7) was -2.5%, the receptor occupancy at 10 µM (STK17B) was 45.5% and the receptor occupancy at 10 µM (AURK A) was -9.3%. It also gave a receptor occupancy at 10 µM (CAMK1) of 26.2%, a receptor occupancy at 10 µM (LATS2) of 9.4% and a receptor occupancy at 10 µM (WEE1) of 17.8%. The receptor occupancy at 10 µM (ULK1) was 25.2%.
